Experimental findings from PubChem BioAssay (NCI) are described below.

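Test compounds were applied to cells in 96-well plates for 48 hours at 5 doses. GI50 = concentration required for 50% inhibition of growth. TGI is the concentration that stops growth completely.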

Some test systems named below: SK-MEL-2 melanoma; HCT-15 colon; 786-0 renal; OVCAR-3 ovarian; SR leukemia; M14 melanoma; NCI-H23 lung; NCI-H522 lung; NCI-H460 lung; MDA-MB-231 breast.
Common to all, as to experiment: NCI anticancer screen, dose series, 48 h

Regarding `CCCCN(CC)CC(C(C)=O)c1c(O)c2ccccc2oc1=O` (stereo unspecified), the TGI in the test on SK-MEL-2 melanoma, in the test on HCT-15 colon, with 786-0 renal, in the test with OVCAR-3 ovarian, in the test with SR leukemia and in the test with M14 melanoma was greater than 100 µM throughout. The TGI with NCI-H23 lung, with NCI-H522 lung and in the test with NCI-H460 lung was greater than 100 µM in each case.

As for `Cc1ccc(NC(=O)c2cc(S(=O)(=O)N3C(=O)NC(=O)NS3(=O)=O)c(S)cc2Cl)cc1`, the GI50 in the test on SK-MEL-2 melanoma was 28.3 µM; with HCT-15 colon, 33.2 µM; in the test with 786-0 renal, 40.4 µM; in the test on OVCAR-3 ovarian, 16.5 µM; in the test with M14 melanoma it was 24.6 µM; in the test on MDA-MB-231 breast, 20.4 µM. Moreover, the figures for the GI50 in the test on NCI-H23 lung, with NCI-H522 lung and in the test on NCI-H460 lung were 32.3 µM, 36.1 µM and 29.4 µM, respectively. Further, the TGI with SK-MEL-2 melanoma is 85.3 µM; in the test with HCT-15 colon, greater than 100 µM; in the test with 786-0 renal it was greater than 100 µM; in the test with OVCAR-3 ovarian, 36.4 µM; in the test on M14 melanoma it was 66.8 µM; in the test with MDA-MB-231 breast, 57.9 µM. In addition, the TGI was 99.6 µM in the test on NCI-H23 lung, greater than 100 µM with NCI-H522 lung and greater than 100 µM in the test with NCI-H460 lung.

As for `CCOC(=O)C(NC(=O)c1nc[nH]c1[N+](=O)[O-])C(C)C` (stereo unspecified), the TGI in the test on SK-MEL-2 melanoma, in the test with HCT-15 colon, with 786-0 renal, in the test with OVCAR-3 ovarian, with SR leukemia and in the test on M14 melanoma was greater than 100 µM throughout. The TGI in the test on NCI-H23 lung, with NCI-H522 lung and in the test with NCI-H460 lung was greater than 100 µM in each case.

As for `C/C(=N/NC(=O)C[N+](C)(C)C)C(CN(C)C)C(=O)Nc1ccccc1` (stereo unspecified), the TGI with SK-MEL-2 melanoma, with HCT-15 colon, in the test with 786-0 renal, in the test with OVCAR-3 ovarian, in the test with SR leukemia and with M14 melanoma was greater than 100 µM in each case. In addition, the TGI in the test with NCI-H23 lung, in the test on NCI-H522 lung and in the test with NCI-H460 lung was greater than 100 µM in each case.

For `CN(C)C(=S)/N=c1\ssc(=S)n1Cc1ccncc1`, the TGI with SK-MEL-2 melanoma is 52.2 µM; in the test with HCT-15 colon, 55.1 µM; in the test on 786-0 renal, 66 µM; in the test on OVCAR-3 ovarian it was 32.9 µM; with SR leukemia it was 45.4 µM; in the test on M14 melanoma, 62.9 µM. Further, the results for the TGI in the test on NCI-H23 lung, in the test with NCI-H522 lung and in the test with NCI-H460 lung were 60.7 µM, 2.99 µM and 31.5 µM, respectively.

With `CCOC(=O)C1SC(=Nc2ccc(Cl)cc2)N=C1C` (stereo unspecified), the TGI was determined as 38.5 µM in the test on SK-MEL-2 melanoma; 30 µM in the test with HCT-15 colon; 30.7 µM with 786-0 renal; 47.8 µM in the test with OVCAR-3 ovarian; […] in the test on SR leukemia; 34.9 µM in the test with NCI-H23 lung. In addition, the TGI in the test with NCI-H522 lung turned out to be 33 µM; in the test on NCI-H460 lung, 45.1 µM.

Turning to `CC(=O)OCC1OC(N2C(=O)C(=O)c3ccccc32)C(OC(C)=O)C(OC(C)=O)C1OC(C)=O` (stereo unspecified), the TGI in the test with SK-MEL-2 melanoma, in the test on HCT-15 colon, with 786-0 renal, in the test with OVCAR-3 ovarian, in the test with SR leukemia and with M14 melanoma was greater than 100 µM throughout. Also, the TGI in the test with NCI-H23 lung, in the test on NCI-H522 lung and in the test with NCI-H460 lung was greater than 100 µM throughout.

As to `CSC1=Nc2ccccc2N=C(c2ccc(Cl)cc2)C1`, the TGI in the test with SK-MEL-2 melanoma is 51.4 µM; with HCT-15 colon it was greater than 100 µM; with 786-0 renal, greater than 100 µM; with OVCAR-3 ovarian it was greater than 100 µM; in the test with SR leukemia, greater than 100 µM; in the test on M14 melanoma, greater than 100 µM. Moreover, the TGI in the test on NCI-H23 lung, in the test on NCI-H522 lung and in the test on NCI-H460 lung was greater than 100 µM each time.

Regarding `O=C(/C=C/c1ccccc1)c1ccc(NCc2nc3ccccc3[nH]2)cc1`, the TGI with SK-MEL-2 melanoma was 25.5 µM; with HCT-15 colon, 15.9 µM; with 786-0 renal it was 14.4 µM; in the test with OVCAR-3 ovarian, 9.57 µM; with SR leukemia, greater than 35.3 µM; in the test on M14 melanoma it was 21.4 µM. The TGI with NCI-H23 lung is 11 µM; with NCI-H522 lung it was 14.7 µM; in the test on NCI-H460 lung, 12 µM.

As for `O=C1CCCCN1CCCCC#Cc1cccc(C#Cc2cccnc2)c1`, the GI50 in the test with HCT-15 colon is 3.96 µM; in the test on 786-0 renal, 13 µM; in the test on OVCAR-3 ovarian, 22.6 µM; in the test with M14 melanoma, 14.3 µM; with MDA-MB-231 breast, 12 µM; in the test on NCI-H23 lung it was 17.1 µM. The figures for the GI50 with NCI-H522 lung and in the test with NCI-H460 lung were 19 µM and 19.6 µM, respectively. The TGI worked out at 17.7 µM in the test with HCT-15 colon; 27.8 µM with 786-0 renal; 71.4 µM with OVCAR-3 ovarian; 34.7 µM in the test on M14 melanoma; 27.7 µM in the test on MDA-MB-231 breast; 37.7 µM in the test with NCI-H23 lung. For the same molecule, the TGI was 63.7 µM in the test on NCI-H522 lung and greater than 100 µM with NCI-H460 lung.

Regarding `O=[N+]([O-])c1ccc(-c2ccc(-c3csc(Nc4ccccc4)n3)o2)cc1`, the TGI turned out to be 36.4 µM in the test on SK-MEL-2 melanoma; 42.5 µM in the test on HCT-15 colon; 30.9 µM in the test on 786-0 renal; 33.7 µM with OVCAR-3 ovarian; 4.76 µM in the test on SR leukemia; 38 µM in the test on M14 melanoma. Besides, the TGI in the test on NCI-H23 lung is 36.8 µM; with NCI-H522 lung, 32 µM; with NCI-H460 lung it was greater than 67 µM.

Turning to `COc1ccc(C(=O)c2ccc([As]=O)cc2)cc1` (stereo unspecified), the GI50 in the test on SK-MEL-2 melanoma is 0.173 µM; in the test with HCT-15 colon, 0.0259 µM; in the test on 786-0 renal it was 0.0605 µM; in the test with OVCAR-3 ovarian, 0.0345 µM; in the test with M14 melanoma, 0.0629 µM; with MDA-MB-231 breast, 0.087 µM. Besides, the values for the GI50 with NCI-H23 lung, in the test with NCI-H522 lung and in the test with NCI-H460 lung were 0.108 µM, 0.0902 µM and 0.172 µM, respectively. Moreover, the TGI stood at 0.373 µM with SK-MEL-2 melanoma; 0.11 µM in the test with HCT-15 colon; 0.191 µM in the test on 786-0 renal; 0.114 µM with OVCAR-3 ovarian; 0.218 µM in the test with M14 melanoma; 0.242 µM in the test on MDA-MB-231 breast. For the same molecule, the figures for the TGI in the test on NCI-H23 lung, in the test with NCI-H522 lung and with NCI-H460 lung were 0.322 µM, 0.254 µM and 0.416 µM, respectively.

`CC(=O)/C(=C/c1ccccc1F)C(=O)c1ccccc1`: the TGI in the test with SK-MEL-2 melanoma is 93.8 µM; in the test with HCT-15 colon, greater than 100 µM; in the test with 786-0 renal it was greater than 100 µM; in the test on OVCAR-3 ovarian it was 58.8 µM; with M14 melanoma, greater than 100 µM; with MDA-MB-231 breast, 92.5 µM. The TGI in the test on NCI-H23 lung was greater than 100 µM; in the test with NCI-H522 lung it was greater than 100 µM; in the test on NCI-H460 lung, 97.8 µM.
